Experimental data reported in patent publication US8765748B2, “Indazolyl, benzimidazolyl, benzotriazolyl substituted indolinone derivatives as kinase inhibitors useful in the treatment of cancer” (University Health Network, priority 2007, dated 2014).

How the values were obtained:
Assay type in all cases: biochemical
Aurora A = target: T1, Aurora A (Homo sapiens, UniProt O14965); experiment: Aurora A Inhibition Assay (Z-Lyte); conditions: for IC50: 20 μM ATP, 12 nM Aurora A, read-out: Aurora A IC50 Ranges; for inhibition at 10 µM: 10 μM compound, read-out: Aurora A relative inhibition percentage at a dose of 10 μM
T1 construct: purchased Invitrogen PV3612
T1 sequence (O14965 1-403): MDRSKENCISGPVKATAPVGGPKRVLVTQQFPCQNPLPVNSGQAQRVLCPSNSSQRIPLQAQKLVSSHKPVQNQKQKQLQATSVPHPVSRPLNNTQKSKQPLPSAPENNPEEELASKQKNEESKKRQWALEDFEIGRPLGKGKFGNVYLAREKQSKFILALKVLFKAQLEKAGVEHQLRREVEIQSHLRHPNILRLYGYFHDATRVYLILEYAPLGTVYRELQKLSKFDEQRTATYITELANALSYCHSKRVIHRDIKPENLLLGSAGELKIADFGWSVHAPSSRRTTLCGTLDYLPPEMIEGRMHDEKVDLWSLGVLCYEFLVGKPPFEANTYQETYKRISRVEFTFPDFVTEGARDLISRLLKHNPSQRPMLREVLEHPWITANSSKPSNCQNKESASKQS
Experimental: (§1) Aurora A inhibition was determined using the Z-Lyte assay kit from Invitrogen. The assay was performed using the recommended manufacturer's instructions with 20 μM ATP and 12 nM Aurora A (Invitrogen cat #PV3612). The % inhibition values were determined according to the manufacturer's directions and IC50 values were obtained using a non-linear 4 point logistic curve fit (XLfit4, IDBS)

PLK2 = target: T2, PLK2 (Homo sapiens, UniProt Q9NYY3); experiment: PLK2 Inhibition Assay (Z-Lyte); conditions: for inhibition at 10 µM: 10 μM compound, read-out: PLK2 relative inhibition percentage at a dose of 10 μM
T2 construct: purchased Invitrogen PV4204
T2 sequence (Q9NYY3 whole entry): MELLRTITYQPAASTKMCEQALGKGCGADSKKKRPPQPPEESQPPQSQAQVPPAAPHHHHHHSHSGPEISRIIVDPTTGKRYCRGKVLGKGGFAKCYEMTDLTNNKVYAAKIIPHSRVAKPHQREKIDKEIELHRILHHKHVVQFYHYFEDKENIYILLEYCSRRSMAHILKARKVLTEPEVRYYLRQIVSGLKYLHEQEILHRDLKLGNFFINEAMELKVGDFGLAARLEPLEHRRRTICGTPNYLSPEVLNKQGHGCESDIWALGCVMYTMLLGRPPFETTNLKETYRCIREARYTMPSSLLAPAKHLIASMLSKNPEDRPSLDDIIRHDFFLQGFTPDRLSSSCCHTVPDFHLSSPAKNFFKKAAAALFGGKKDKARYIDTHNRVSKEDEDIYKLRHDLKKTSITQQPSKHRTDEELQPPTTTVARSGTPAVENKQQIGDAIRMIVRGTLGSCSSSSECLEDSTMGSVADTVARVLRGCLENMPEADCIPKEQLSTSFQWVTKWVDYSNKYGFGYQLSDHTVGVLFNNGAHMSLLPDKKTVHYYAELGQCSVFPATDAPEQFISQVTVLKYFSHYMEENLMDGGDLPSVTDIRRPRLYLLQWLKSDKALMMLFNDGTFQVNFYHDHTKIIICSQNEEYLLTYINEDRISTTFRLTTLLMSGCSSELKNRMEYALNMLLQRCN
Experimental: as §1, with “PLK2” for “Aurora A”, “Invitrogen (cat #PV3802).” for “Invitrogen.”, “60” for “20”, “133” for “12”, “#PV4204).” for “#PV3612).”

human PLK4 = target: T3, human PLK4 (Homo sapiens, UniProt O00444); experiment: PLK4 Inhibition Assay (indirect ELISA); conditions: 15 μM ATP, 4 nM GST-PLK4; read-out: PLK4 IC50 Ranges
T3 construct: amino terminal GST fusion of residues 1-391 of human PLK4; made in house; host or cells: E. coli
T3 sequence (O00444 1-391): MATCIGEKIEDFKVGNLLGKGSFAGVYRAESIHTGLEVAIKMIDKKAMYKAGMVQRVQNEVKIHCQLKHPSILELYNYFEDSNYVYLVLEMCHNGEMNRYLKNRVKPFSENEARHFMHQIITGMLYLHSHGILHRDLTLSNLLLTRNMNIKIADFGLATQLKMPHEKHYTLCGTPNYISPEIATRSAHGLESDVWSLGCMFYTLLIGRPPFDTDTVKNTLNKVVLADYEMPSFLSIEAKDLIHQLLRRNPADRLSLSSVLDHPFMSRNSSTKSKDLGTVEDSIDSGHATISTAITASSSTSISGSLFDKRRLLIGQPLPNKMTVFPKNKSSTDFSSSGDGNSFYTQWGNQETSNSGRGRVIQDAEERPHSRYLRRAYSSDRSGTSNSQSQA
Procedure, shortened: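 Dephosphorylated (lambda phosphatase) GST-PLK4 activity read by indirect ELISA. Compounds were pre-incubated with enzyme for 15 minutes before ATP was added. IC50 came from a non-linear 4-point logistic fit.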

Aurora B = target: T4, Aurora B (Homo sapiens, UniProt Q96GD4); experiment: Aurora B Inhibition Assay (Z-Lyte); conditions: for IC50: 128 μM ATP, 28 nM Aurora B, read-out: Aurora B IC50 Ranges; for inhibition at 10 µM: 10 μM compound, read-out: Aurora B relative inhibition percentage at a dose of 10 μM
T4 construct: purchased Invitrogen PV3970
T4 sequence (Q96GD4 whole entry): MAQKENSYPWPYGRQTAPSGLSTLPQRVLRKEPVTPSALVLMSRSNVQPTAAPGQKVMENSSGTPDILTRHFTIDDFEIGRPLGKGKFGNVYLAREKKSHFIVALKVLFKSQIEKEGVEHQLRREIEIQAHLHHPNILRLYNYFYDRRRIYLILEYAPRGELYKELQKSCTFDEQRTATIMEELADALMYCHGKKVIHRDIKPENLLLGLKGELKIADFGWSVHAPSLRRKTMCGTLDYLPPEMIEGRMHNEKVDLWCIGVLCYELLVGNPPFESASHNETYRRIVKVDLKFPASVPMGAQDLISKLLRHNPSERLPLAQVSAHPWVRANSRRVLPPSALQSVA
Experimental: as §1, with “Aurora B” for “Aurora A”, “with 128” for “with 20”, “and 28” for “and 12”, “cat #PV3970).” for “cat #PV3612).”

PLK1 = target: T5, PLK1 (Homo sapiens, UniProt P53350); experiment: PLK1 Inhibition Assay (Z-Lyte); conditions: for IC50: 25 μM ATP, 8 nM PLK1, read-out: PLK1 IC50 Ranges; for inhibition at 10 µM: 10 μM compound, read-out: PLK1 relative inhibition percentage at a dose of 10 μM
T5 construct: purchased Invitrogen PV3501
T5 sequence (P53350 whole entry): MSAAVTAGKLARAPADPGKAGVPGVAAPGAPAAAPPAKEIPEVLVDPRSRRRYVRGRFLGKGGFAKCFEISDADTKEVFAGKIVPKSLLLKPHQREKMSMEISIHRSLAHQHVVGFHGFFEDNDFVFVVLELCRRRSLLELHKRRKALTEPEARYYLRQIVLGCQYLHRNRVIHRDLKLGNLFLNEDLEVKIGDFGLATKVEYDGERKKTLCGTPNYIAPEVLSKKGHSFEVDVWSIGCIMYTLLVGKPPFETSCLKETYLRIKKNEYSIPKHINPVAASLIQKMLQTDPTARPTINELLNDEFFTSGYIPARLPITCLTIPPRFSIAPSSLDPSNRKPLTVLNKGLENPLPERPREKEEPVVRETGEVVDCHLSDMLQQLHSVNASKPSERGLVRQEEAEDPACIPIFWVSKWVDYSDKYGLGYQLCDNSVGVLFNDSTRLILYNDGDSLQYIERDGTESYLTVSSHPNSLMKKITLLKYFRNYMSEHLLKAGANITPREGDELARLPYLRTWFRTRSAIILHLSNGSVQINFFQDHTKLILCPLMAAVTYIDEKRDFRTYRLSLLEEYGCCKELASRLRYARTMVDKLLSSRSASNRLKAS
Experimental: PLK1 inhibition was determined using the Z-Lyte assay kit from Invitrogen (cat #PV3802). […] The % inhibition values were determined according to the manufacturer's directions and IC50 values were obtained using a non-linear 4 point logistic curve fit (XLfit4, IDBS)

Compound	IC50 (Aurora A) [µM]	IC50 (PLK2; 60 μM ATP, 133 nM PLK2, read-out: PLK2 IC50 Ranges) [µM]	IC50 (human PLK4) [µM]	IC50 (Aurora B) [µM]	IC50 (PLK1) [µM]	inhibition at 10 µM (Aurora A) [%]	inhibition at 10 µM (PLK2) [%]	inhibition at 10 µM (PLK1) [%]	inhibition at 10 µM (Aurora B) [%]
O=C1Nc2c(cccc2C(F)(F)F)C1=Cc1ccc2cn[nH]c2c1 (mixture of isomers) [Example A47, (E and Z)-3-((1H-indazol-6-yl)methylene)-7-(trifluoromethyl)indolin-2-one]	> 50	> 50	> 50	5 to 50	> 50				
O=C1Nc2ccccc2C1=Cc1ccc2c(CCc3ccncc3)n[nH]c2c1 (mixture of isomers) [Example A64, (E and Z)-3-((3-(2-(pyridin-4-yl)ethyl)-1H-indazol-6-yl)methylene)-indolin-2-one]			< 5	< 5		> 50	< 50	< 50	
COc1ccc2c(c1)C(=Cc1ccc3cn[nH]c3c1)C(=O)N2 (mixture of isomers) [Example A83, (E and Z)-3-((1H-indazol-6-yl)methylene)-5-methoxyindolin-2-one]			< 5	< 5		> 50	> 50	> 50	
COc1ccc2c(c1)C(=Cc1ccc3c(/C=C/c4ccccn4)n[nH]c3c1)C(=O)N2 (mixture of isomers) [Example A87, (E and Z)-5-methoxy-3-((3-((E)-2-(pyridin-2-yl)vinyl)-1H-indazol-6-yl)methylene)indolin-2-one]			< 5	< 5		> 50	< 50	< 50	
O=C1Nc2ccccc2C1=Cc1ccc2c(-c3ccc[nH]3)n[nH]c2c1 (mixture of isomers) [Example A89, (E and Z)-3-((3-(1H-pyrrol-2-yl)-1H-indazol-6-yl)methylene)indolin-2-one]	< 5		< 5	< 5			< 50	< 50	
O=C1Nc2ccccc2C1=Cc1ccc2c(-c3cccnc3)n[nH]c2c1 (mixture of isomers) [Example A93, (E and Z)-3-((3-(pyridin-3-yl)-1H-indazol-6-yl)methylene)indolin-2-one]	< 5		< 5	< 5			< 50	< 50	
O=C1Nc2ccc(Cl)cc2C1=Cc1ccc2c(-c3cccnc3)n[nH]c2c1 (mixture of isomers) [Example A94, (E and Z)-5-chloro-3-((3-(pyridin-3-yl)-1H-indazol-6-yl)methylene)-indolin-2-one]	> 50		< 5	< 5			< 50	< 50	
O=C1Nc2ccccc2C1=Cc1ccc2c(-c3cncnc3)n[nH]c2c1 (mixture of isomers) [Example A100, (E and Z)-3-((3-(pyrimidin-5-yl)-1H-indazol-6-yl)methylene)-indolin-2-one]			< 5	< 5		> 50	< 50	< 50	
O=C1Nc2ncccc2C1=Cc1ccc2c(/C=C/c3cccnc3)n[nH]c2c1 (mixture of isomers) [Example A114, (E and Z)-3-((3-((E)-2-(pyridin-3-yl)vinyl)-1H-indazol-6-yl)methylene)-1H-pyrrolo[2,3-b]pyridin-2(3H)-one]	< 5		< 5	< 5			< 50	< 50	
COc1ccc2c(c1)C(=Cc1ccc3c(/C=C/c4cccnc4)n[nH]c3c1)C(=O)N2 (mixture of isomers) [Example A115, (E and Z)-5-methoxy-3-((3-((E)-2-(pyridin-3-yl)vinyl)-1H-indazol-6-yl)methylene)indolin-2-one]	< 5		< 5	< 5			< 50	< 50	
O=C1Nc2ccc(C(=O)Nc3ccccc3)cc2/C1=C\c1ccc2cn[nH]c2c1 [Example A11, (E)-3-((1H-indazol-6-yl)methylene)-2-oxo-N-phenylindoline-5-carboxamide]			< 5		> 50	> 50	< 50		> 50

Now from value to compound:

IC50 (Aurora A) [µM]	IC50 (PLK2; 60 μM ATP, 133 nM PLK2, read-out: PLK2 IC50 Ranges) [µM]	IC50 (human PLK4) [µM]	IC50 (Aurora B) [µM]	IC50 (PLK1) [µM]	inhibition at 10 µM (Aurora A) [%]	inhibition at 10 µM (PLK2) [%]	inhibition at 10 µM (PLK1) [%]	inhibition at 10 µM (Aurora B) [%]	Compound
< 5		< 5	< 5			< 50	< 50		Cc1ccc2c(c1)C(=Cc1ccc3cn[nH]c3c1)C(=O)N2 (mixture of isomers) [Example A81, (E and Z)-3-((1H-indazol-6-yl)methylene)-5-methylindolin-2-one]
< 5		< 5	< 5			< 50	< 50		O=C1Nc2ccccc2C1=Cc1ccc2c(/C=C/c3cnccn3)n[nH]c2c1 (mixture of isomers) [Example A104, (E and Z)-3-((3-((E)-2-(pyrazin-2-yl)vinyl)-1H-indazol-6-yl)methylene)-indolin-2-one]
< 5		< 5	< 5			< 50	> 50		CN1CCN(C(=O)c2cccc(/C=C/c3n[nH]c4cc(C=C5C(=O)Nc6ccccc65)ccc34)c2)CC1 (mixture of isomers) [Example A107, (E and Z)-3-((3-((E)-3-(4-methylpiperazine-1-carbonyl)styryl)-1H-indazol-6-yl)methylene)indolin-2-one 2,2,2-trifluoroacetate]
< 5		< 5	< 5			< 50	< 50		CCOC(=O)/C=C/c1n[nH]c2cc(C=C3C(=O)Nc4ncccc43)ccc12 (mixture of isomers) [Example A110, (E and Z)-ethyl 3-(6-((E)-(2-oxo-1H-pyrrolo[2,3-b]pyridin-3(2H-ylidene)methyl)-1H-indazol-3-yl)acrylate]
< 5		< 5	< 5			< 50	< 50		COc1ccc2c(c1)C(=Cc1ccc3c(/C=C/C(=O)N4CCN(C)CC4)n[nH]c3c1)C(=O)N2 (mixture of isomers) [Example A118, (E and Z)-5-methoxy-3-((3-((E)-3-(4-methylpiperazin-1-yl)-3-oxoprop-1-enyl)-1H-indazol-6-yl)methylene)indolin-2-one]
		< 5			> 50	> 50	> 50	> 50	O=C1Nc2ncc(Br)cc2C1=Cc1ccc2cn[nH]c2c1 (racemic) [Example A69, (E and Z)-3-((1H-indazol-6-yl)methylene)-5-bromo-1H-pyrrolo[2,3-b]pyridin-2(3H)-one]
		< 5	5 to 50	5 to 50	< 50	> 50			O=C1Nc2ccc(Br)cc2/C1=C\c1ccc2[nH]nnc2c1 [Example A3, (E)-3-((1H-benzo[d][1,2,3]triazol-5-yl)methylene)-5-bromoindolin-2-one]
